Experimental data taken from patent US20070292351A1, “Assay for efficacy of histone deacetylase inhibitors” (Methylgene, Inc., priority 2006, published 2007).

Key:
[1] = tested on: H4 acetylation in human H460 tumors; test: H4Ac immunoblot analysis of H460 tumors in nude mice; assay type: in vivo, nude mice (Balb/c); conditions: 100 mg/kg oral, immunoblot normalized to total histones (FIG. 5B)
Description: FIG. 5 Induction of MT3 and p21 in implanted human NSCLC H460 tumors in vivo in nude mice. Nude mice (Balb/c) bearing human H460 tumors were treated with 100 mg/kg MGCD0103 or 0.5% HEC (Vehicle) by oral administration. After 6 h or 24 h, three mice from each group were sacrificed, their tumors harvested and analyzed. Panel A: p21 and MT3 RNA levels quantified by conventional semi-quantitative PCR, normalized to β-actin. Panel B: H4Ac level detected by immunoblot analysis, normalized to total histones.
Human non-small cell lung carcinoma NSCLC-H460 cells (2 million) were injected subcutaneously in the animal flank and allowed to form solid tumors. Tumor fragments were passaged in animals for a minimum of three times before their use. Tumor fragments (about 30 mg) were implanted subcutaneously through a small surgical incision under general anesthesia to Balb/cA female nude mice (6-8 weeks old). Recipient animals were treated with either vehicle (0.1 N HCl) or MGCD0103 (2HBr salt, in 0.1 N HCl) 100 mg/kg orally. Tumors were harvested after one dose of either 6 hour or 24 hours post administration of vehicle or MGCD0103. Each experimental group contained 3 animals. Tumor tissues were deposited in RNAlater (Qiagen, Missisauga Ontario) for total RNA extraction.

[2] = tested on: human colon cancer HCT15 cells; test: RT-PCR of MT3 transcription in HCT15 cells; assay type: cell-based
Description: FIG. 1. […] HCT15 cells were treated with HDAC inhibitors or indicated compounds for 16 hours before total RNAs are isolated. RNA levels of MT3 were measured by real-time RT-PCR and are subsequently normalized against β-actin.
Colon cancer HCT15 cells were exposed to 1 μM MGCD0103 for various amounts of time, and MT3 RNA levels were monitored by conventional semi-quantitative RT-PCR. Maximal induction is achieved between 8 h and 24 h of exposure and maintained through 72 h.
(§1) RNA was extracted from 8×10^6 cells using the Qiagen RNeasy Mini kit (cat#74106, Qiagen, Missisauga Ont.) following the manufacturer's instructions. RT reaction was performed using the Expand Reverse Transcriptase kit from Roche (Cat#1 785 834 Roche Applied Biosciences, Laval, Que) with 1 μg total RNA together with 1 μl oligo(dT) primer (cat#y01212, Invitrogen-Canada, Burlington, Ont). cDNA was synthesized using an Eppendorf Mastercycler gradient PCR apparatus (Brinkmann Instruments Canada LTD., Mississauga, Ontario), using a two cycle protocol. For the 1st cycle reaction mixture (0.5 μl H2O, 4 μl of 5× Buffer, 2 μl DTT, 2 ul of 10 mM dNTPs, 0.5 μl RNAsin (cat#N211B, Promega, Fisher Scientific, Whitby, Ont.) and […] of the Expand Reverse Transcriptase (Cat#1785834, Roche, Laval, Quebec)) was incubated at 65° C. for 10 minutes and then set on ice. A second cycle was performed at 42° C. for 1 hour. The resulting cDNA products were kept at 4° C. until used.
(§2) One ul of the resulting cDNA was used for every amplification reaction with 18.9 ul H2O, 1.25 ul of 10 mM dNTPs, 0.5 ul of each primer pair, 2.5 ul of 10× Buffer. The PCR reaction was carried out in an Eppendorf Mastercycler gradient. The sequences of the primers used for the amplification of selected biomarkers, as well as the details of the PCR reaction cycles are featured below. All buffers came from Expand Long Template PCR system (Roche, Laval, Quebec, Cat#11681842001). All primers were synthesized by Invitrogen (Invitrogen-Canada, Burlington, Ont.)
Analysis of transcripts was performed using STORM 860 (Amersham Biosciences, Baie d'Urfe, Qubec). Transcription of genes was normalized to transcription of actin, which was performed in the same RT-PCR reaction. The relative expression level of gense was normalized to baseline signals.
(§3) Quantitative PCR with SYBR Green I detection with Mastercycler® ep realplex (Eppendorf) was performed using LightCycler® 480 SYBR Green I Master (Roche Diagnostics). SYBR Green I assays were performed with 600 nM primers. All other reaction conditions were as described by the manufacturer. Amplification conditions were 5 minutes of initial denaturation at 95° C., followed by 40 cycles of each 15 seconds at 95° C., 15 seconds at 63.4° C., 20 seconds at 68° C., a melting curve from 60° C. to 95° C. was recorded. Quantification was performed using Pfaffl method, a relative quantification method in real-time PCR (Nucleic Acids Research 2001 29:2002-2007). Primers were synthesized by Invitrogen (Invitrogen-Canada, Burlington, Ont.).

Jurkat cells = test: IL-6 transcription in Jurkat cells; assay type: cell-based, human; conditions: 24 hours (FIG. 14)
Description: as §3

peripheral white cells = test: Cytokine/chemokine transcription in peripheral white cells of AML patients treated in vivo; design: species or system human; conditions: for induction of transcription of IL-6, IL-8, IL-1b, MIP1b: in vivo
Description: FIG. 15 Induction of transcription of IL-6, IL-8, IL-1b, MIP1b cytokine/chemokines by MGCD0103 in peripheral white cells ex vivo from a MDS patient and in vivo in an AML patient with response (Patient J).
Whole blood from either consenting healthy volunteers or consenting patients was centrifuged at 2500 rpm for 10 minutes at ambient temperature in a Sorvall RT-7 centrifuge (Mandel Scientific Co., Guelph, Ontario). Plasma was removed and buffy coat was collected. Five volumes of Erythrocyte Lysis Buffer (EL) (Qiagen Canada Inc., Mississauga, Ontario) were added into buffy coat. Buffy coat was incubated on ice for 20 minutes before it was centrifuged at 400 g for 10 minutes at 4° C. Supernatant was removed and buffy coat was washed twice with EL buffer and re-centrifuged. Buffy coat was resuspended in RPMI media and cells were counted with trypan blue exclusion. To isolate PBMCs, buffy coat cells were centrifuged over Lymphoprep (Axis-Shield, 1114544), and any remaining erythrocytes in the sample were lysed by treatment with EL lysis buffer (Qiagen, 79217). The cell pellets are washed and then re-suspended in RPMI containing 10% FBS.
Human patients with either solid tumors or leukemia/MDS diseases were enrolled in phase I studies with consensus forms. MGCD0103 were dosed into patients orally every other day (day 1, day 3, day 5 […]). Blood samples were withdrawled by using the Vacutainer sodium-heparin blood collection tubes (Becton Dickinson Laboratories, Franklin Lakes, N.J.) and shipped to the test site within 24 hours on ice-pack. Baseline samples were drawn immediately prior to the first drug dose, while the 24 hour samples were drawn at 24 hours post the first drug dose. The 48 hours samples were drawn at 48 hours post the first dose. For the 1 week samples, blood was drawn 72 hours after day 5 dose (3 accumulated doses during week 1).

RPMI-8226 myeloma cells = test: RT-PCR of MT3 transcription in RPMI-8226 cells; assay type: cell-based, human; conditions: 16 h, semi-quantitative RT-PCR (FIG. 2)
Description: as §1
as §2, with “All buffers came from Expand Long Template PCR system (Roche, Laval, Quebec, Cat#11681842001). All primers were synthesized by Invitrogen (Invitrogen-Canada, Burlington, Ont.)” left out

Nc1ccccc1NC(=O)c1ccc(CNc2nccc(-c3cccnc3)n2)cc1 [MGCD0103]
H4 acetylation in tumors [1]: detectable only after 6 h of treatment | Time-dependent induction of MT3 transcription ([2]; 1 uM (FIG. 3)): Time-dependent induction | time through which maximal MT3 induction is maintained ([2]; 1 uM (FIG. 3)): ≥ 72 h | Dose-dependent induction of MT3 transcription ([2]; 16 h, semi-quantitative RT-PCR (FIG. 2)): Dose-dependent induction | Induction of transcription of MT3 ([2]; 16 hours, real-time RT-PCR normalized against beta-actin (FIG. 1)): induced | dose-dependent induction of IL-6 transcription (Jurkat cells): dose-dependent induction | expression level of other cytokine/chemokines (peripheral white cells; ex vivo/in vivo in patients (data not shown)): either decreased or remained unmodified | induction of transcription of IL-6, IL-8, IL-1b, MIP1b (peripheral white cells; AML patient with response (Patient A) (FIG. 15)): induction | induction of transcription of IL-6, IL-8, IL-1b, MIP1b (peripheral white cells; two AML patients without clinical response (Patient B, C) (FIG. 15)): No such induction | Dose-dependent induction of MT3 transcription (RPMI-8226 myeloma cells): Dose-dependent induction
